These results are taken from ChEMBL document CHEMBL3217462, “FP Tethering: a screening technique to rapidly identify compounds that disrupt protein-protein interactions” (Medchemcomm, 2014).

The species named for assay [1] is Homo sapiens. The experiment in a line: Binding affinity to CBP KIX domain H602C mutant (unknown origin) assessed as increase in binding affinity constant for MLL by fluorescence polarization tethering assay. (In fluorescence polarisation assays a small probe gives low polarisation when free and higher when bound to something large.)
Assay [2] is filed under the species Homo sapiens. The experiment in a line: Binding affinity to CBP KIX domain H602C mutant (unknown origin) assessed as increase in binding affinity constant for phosphorylated KID by fluorescence polarization tethering assay.
The species named for assay [3] is Homo sapiens. The experiment in a line: Binding affinity to CBP KIX domain H602C mutant (unknown origin) assessed as increase in binding affinity constant for c-Myb by fluorescence polarization tethering assay.
The species entered for assay [4] is Homo sapiens. The experiment in a line: Displacement of fluorescent-labelled pKID from CBP KIX domain H602C mutant (unknown origin) after 1 hr by Fluorescent polarization assay. To be noted: concentration not given here.
The species named for assay [5] is Homo sapiens. Nature of the assay: Binding affinity to CBP KIX domain H602C mutant (unknown origin) after 1 hr by Fluorescent polarization assay.
The species named for assay [6] is Homo sapiens. Nature of the assay: Binding affinity to CBP KIX domain N627C mutant (unknown origin) after 1 hr by Fluorescent polarization assay.
The species entered for assay [7] is Homo sapiens. The experiment in a line: Displacement of fluorescent-labelled MLL from CBP KIX domain N627C mutant (unknown origin) at 250 uM after 1 hr by Fluorescent polarization assay.
Assay [8] is described as follows: (§1) Displacement of fluorescent-labelled MLL from CBP KIX domain N627C mutant (unknown origin) after 1 hr by Fluorescent polarization assay. Further details: species or system Homo sapiens.
The species entered for assay [9] is Homo sapiens. Described as §1.

The inhibition is the percentage by which the read-out fell short of the control. Consider `CC(=O)Nc1ccc(Cl)c(NC(=O)NCCSSCCN(C)C)c1`, for which the fold change (FC) came out at 9 in assay [1], 6.5 in [2] and 9 in assay [3]. The compound also had an inhibition in assay [4] of 24%. The Activity in assay [5] was 71%.

In assay [6], `COc1ccc2cc([C@H](C)C(=O)NCCSSCCN)ccc2c1` came in with an Activity of 36%. This compound gave an inhibition in [7] of 32%.

`CN(C)CCSSCCNC(=O)C1CCN(C(=O)c2ccccc2Nc2ccccc2)CC1`: in [4], the inhibition turned out to be 22%. Further, the Activity in [5] came to 15%.

Broadly, the IC50 is the concentration at which inhibition is half-maximal. Turning to `CN(C)CCSSCCC(=O)N1CCC(O)(c2ccc(Cl)c(C(F)(F)F)c2)CC1`, in [6], the Activity worked out at 67%. The compound also displayed a half-inhibitory concentration (IC50) in [8] of 68 µM. For the same compound, the inhibition result in assay [9] is “Dose-dependent effect”; in assay [7], 44%.
